# Tests used:
# Assay in all cases: competition pull-down with PIP3 beads, Western blot
# Type in all cases: binding
# BTK [1] = molecular target: T1, BTK (Homo sapiens, UniProt Q06187); conditions: human platelet NP40 lysate; competes with bead-bound PIP3 (about 800 nM); pH 7.4, 4 °C, 5 mM EDTA, 5 mM EGTA
# T1 construct: native full-length protein in NP40 lysate of washed human platelets, captured on PIP3 beads, Western blot read-out
# BTK [2] = molecular target: T1, BTK; conditions: human platelet NP40 lysate; competes with bead-bound PIP3 (about 800 nM); pH 7.4, 4 °C, 5 mM EDTA, 5 mM EGTA; remark: listed apart in the source
# RASA3 = molecular target: T2, RASA3 (Homo sapiens, UniProt Q14644); conditions: read-out: % inhibition of extraction at 40 μM
# T2 construct: native full-length protein in NP40 lysate of washed human platelets, captured on PIP3 beads, Western blot read-out
# T2 sequence (Q14644 2-834): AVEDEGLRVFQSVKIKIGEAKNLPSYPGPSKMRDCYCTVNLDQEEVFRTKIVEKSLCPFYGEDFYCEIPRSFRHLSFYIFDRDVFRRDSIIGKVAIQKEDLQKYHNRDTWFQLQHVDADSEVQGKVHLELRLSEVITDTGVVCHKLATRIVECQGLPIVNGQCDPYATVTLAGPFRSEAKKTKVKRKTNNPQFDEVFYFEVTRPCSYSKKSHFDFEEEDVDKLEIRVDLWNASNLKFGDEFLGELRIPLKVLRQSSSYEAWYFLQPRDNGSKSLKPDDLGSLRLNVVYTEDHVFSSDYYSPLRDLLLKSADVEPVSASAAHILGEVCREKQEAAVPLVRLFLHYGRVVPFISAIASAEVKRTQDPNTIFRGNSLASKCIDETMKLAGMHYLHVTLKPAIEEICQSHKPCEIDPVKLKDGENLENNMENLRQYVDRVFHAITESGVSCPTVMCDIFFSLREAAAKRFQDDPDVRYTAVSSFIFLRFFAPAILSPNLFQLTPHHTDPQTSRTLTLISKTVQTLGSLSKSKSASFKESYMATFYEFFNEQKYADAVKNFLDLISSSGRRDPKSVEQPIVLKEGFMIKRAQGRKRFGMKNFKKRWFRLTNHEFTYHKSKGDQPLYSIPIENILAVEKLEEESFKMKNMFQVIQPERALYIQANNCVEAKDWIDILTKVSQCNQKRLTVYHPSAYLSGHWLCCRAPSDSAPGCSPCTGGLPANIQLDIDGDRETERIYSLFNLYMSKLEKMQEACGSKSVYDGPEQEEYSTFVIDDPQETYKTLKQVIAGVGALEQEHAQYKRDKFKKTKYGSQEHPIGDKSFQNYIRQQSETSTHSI
# T1 sequence (Q06187 2-659): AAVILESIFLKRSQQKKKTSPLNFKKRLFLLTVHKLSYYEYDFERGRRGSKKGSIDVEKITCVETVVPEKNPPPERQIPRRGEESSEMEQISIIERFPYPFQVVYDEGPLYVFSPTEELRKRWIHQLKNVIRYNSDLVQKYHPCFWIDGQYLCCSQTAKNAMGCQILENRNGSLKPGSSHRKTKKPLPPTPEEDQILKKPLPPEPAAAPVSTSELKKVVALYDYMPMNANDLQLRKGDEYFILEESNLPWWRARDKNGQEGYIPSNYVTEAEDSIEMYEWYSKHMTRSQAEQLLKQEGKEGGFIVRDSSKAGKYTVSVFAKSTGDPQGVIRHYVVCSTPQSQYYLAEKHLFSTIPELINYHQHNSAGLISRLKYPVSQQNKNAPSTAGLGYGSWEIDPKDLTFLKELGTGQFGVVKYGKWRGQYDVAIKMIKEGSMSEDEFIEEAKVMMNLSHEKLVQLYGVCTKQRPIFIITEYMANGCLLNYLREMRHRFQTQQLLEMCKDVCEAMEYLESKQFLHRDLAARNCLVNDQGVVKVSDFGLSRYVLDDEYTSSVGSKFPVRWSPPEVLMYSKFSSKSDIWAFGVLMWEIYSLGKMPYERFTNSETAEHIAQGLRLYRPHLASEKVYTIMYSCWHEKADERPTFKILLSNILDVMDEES
inhibition at 40 µM (RASA3) [%],Structure (SMILES),inhibition of extraction by PIP3 beads at 40 μM (BTK [1]),inhibition of extraction by PIP3 beads (BTK [2])
,CCCCCCCC(=O)OC[C@H](COP(=O)(O)O[C@H]1[C@H](O)[C@@H](OP(=O)(O)O)[C@H](OP(=O)(O)O)[C@@H](OP(=O)(O)O)[C@H]1O)OC(=O)CCCCCCC [DiC8-PIP3],exogenously added DiC8-PIP3 was marginally less potent at competing with PIP3 beads,
> 90,O=P(O)(O)OC1[C@H](O)[C@H](OP(=O)(O)O)C(OP(=O)(O)O)[C@H](OP(=O)(O)O)[C@H]1O (stereo partly drawn) [IP4],,IP4 also reduced extraction of the PH domain–bearing tyrosine kinase BTK
